Measurements as given in article PMC10622577, “Structural basis for stabilisation of the RAD51 nucleoprotein filament by BRCA2” (Nature Communications, 2023).

Assays:
RAD51 S181C = assay: RAD51–TR2 disulphide cross-linking, SDS-PAGE; set-up: species or system human; details: RAD51 S181C 10 μM, 0.5 μM ssDNA, 1.25 μM Cy3-TR2, 2 mM hydrogen peroxide 5 min; pH 7.5; non-reducing SDS-PAGE; repeated three times
Description: To further validate our model of the RAD51–TR2 interaction, we mutated RAD51 S181 to a cysteine to enable disulphide formation with TR2 C3304, which would support its presence at the TR2-RAD51 interface, as identified in the structure.
Fig. 5 Structure-guided BRCA2 TR2 cross-linking to RAD51. A Drawing of the RAD51–TR2 interface, highlighting that amino acids BRCA2 C3304 and RAD51 S181 are spatially close, so that the RAD51 S181C mutant can form a disulphide bridge with C3304 in the TR2 peptide. B SDS-PAGE analysis of cross-linking reactions between RAD51 S181C and TR2 in the presence of hydrogen peroxide. Wild-type RAD51 and the reducing agent DTT were used as controls. Protein bands were visualised with Coomassie Blue. C Same experiment as in B, visualised with 532 nm excitation of the Cy3-labelled TR2 peptide. Experiment was repeated three times. Source data are provided as a Source Data file.
Cross-linking reactions were prepared in buffer: 25 mM HEPES pH 7.5, 150 mM NaCl, 2 mM ATP, 5 mM CaCl2, supplemented with 0.5 μM ssDNA. WT or S181C RAD51 was added to a final concentration of 10 μM and incubated for 15 minutes at room temperature. […] Each crosslinked sample was analysed by SDS-PAGE, using gel-loading dye with DTT (reducing) or without DTT (non-reducing), on a 12% Bis-Tris SDS-PAGE gel. […]

RAD51 D184A, D187A NPFs = assay: EMSA of TR2 titration on RAD51 D184A, D187A NPFs; assay type: binding, human
Method: To assess RAD51 nucleoprotein (NPF) formation, wild-type and mutant RAD51 proteins were incubated with DNA in buffer: 25 mM HEPES pH 7.5, 150 mM NaCl, 2 mM DTT, 2 mM ATP, 5 mM CaCl2 for 15 minutes at room temperature. For filament binding of the TR2 peptide or His6-MBP-TR2 protein, the RAD51 NPFs were incubated with TR2 for further 5 minutes at room temperature. For filament binding of BRC4, the BRC4 peptide was pre-mixed with RAD51 for 10 minutes at room temperature before addition of DNA. For experiments with mono-streptavidin (mSA)-capped DNA, mSA (Sigma) was added in 5× molar excess of biotin labels for 15 minutes at room temperature prior to the addition of RAD51. Concentrations are provided in figures and DNA sequences for each experiment are reported in Supplementary Table 1.
Before electrophoresis, samples were mixed with a 0.5:1 volume of 50% (w/v) sucrose solution and analysed on a pre-run 0.5% (w/v) agarose gel in 0.5× TB buffer at 35 V for 2.5 hours at 4 °C. DNA was visualised by excitation of the fluorescent tag or, in the case of unlabelled DNA, by SYBR Gold staining. Gels were imaged in a Typhoon FLA9000 by excitation at 473 nm for fluorescein-labelled DNA or SYBR Gold-stained gels, 532 nm excitation for Cy3-labelled DNA or 635 nm excitation for Cy5-labelled DNA.
Supplementary table 1. DNA oligos and peptides
Oligos Size (nt) Sequence (5’ – 3’)
D184A […] (forward),
D184A, D187A […] (forward),
EMSA, SPR, CryoEM (micrographs,
Panels C, D (ssDNA) 60 FAM-[…]
Panels C, D (dsDNA) 60 FAM-[…],
Panels E, F (ssDNA) 60 Biotin-[…]
Panels E, F (dsDNA) 60 Biotin-[…],
Supplementary figs. 3, 4 (ssDNA) 60 Biotin-[…]
Supplementary figs. 3, 4 (dsDNA) 60 Biotin-[…],
Panel A (ssDNA) 32 Cy5-[…]
Panel B (dsDNA) 50 […]-Cy3,
Panel B (ssDNA) 60 Biotin-[…]-
Panel B (dsDNA) 60 Biotin,
Panel C (ssDNA) 32 Biotin-[…]-Biotin
Panel C (dsDNA) 50 Biotin-[…]-Cy3,
Supplementary fig. 5A 50 […]-Cy3,
Supplementary fig. 5B (ssDNA) 32 Cy5-[…]-Biotin,
Supplementary fig. 5B (ssDNA) 32 Biotin-[…]-Biotin
Supplementary fig. 5B (dsDNA) 50 Biotin-[…],
Panels B, C, D (ssDNA) 60 FAM-[…]
Panels F, G (ssDNA) 60 […]

DNA = details: cited from earlier work
Description: Our cryoEM maps let us model a highly conserved portion of BRCA2 TR2 that spans residues F3289 to C3304. TR2 sequence conservation extends N-terminally to our model, up to K3263. […] Indeed, the bi ...

With “DDQKNCKKRRALDFLSRLPLPPPVSPICTFVSPAAQKAFQPPRSCGTKY [TR2, BRCA2 TR2 peptide spanning amino acids 3260 to 3308]” the “formation of crosslinked RAD51–TR2 species” value (RAD51 S181C) was “readily detect formation of a crosslinked RAD51–TR2 species”, the “residual TR2 binding” value (RAD51 D184A, D187A NPFs; EMSA Fig. 1C, authors' response to reviewers) was “retain a degree of binding” and the “reduction in TR2 binding, ssDNA versus dsDNA filaments” value (RAD51 D184A, D187A NPFs; EMSA, ssDNA compared with dsDNA) was “especially pronounced for filaments formed on ssDNA”. For the same sequence, the “TR2 binding relative to wild-type” value (RAD51 D184A, D187A NPFs; ss- and dsDNA, 25 mM HEPES pH 7.5, 150 mM NaCl, 2 mM ATP, 5 mM CaCl2, TR2 5 min, room temperature, ssDNA performed twice, dsDNA once) was “reduction in TR2 binding proportional to the decrease in charge at RAD51’s acidic patch” and the “DNA-binding activity of TR2” value (DNA) was “harbours a DNA-binding activity centred on residues 3266-KKRR-3269”.
